{
  "source": "patent US12391683B2",
  "about": "“Therapeutic compounds and methods” (Actio Biosciences, Inc., priority 2022, dated 2025)",
  "key": {"[1]": {"biological_target": "T1, TRPV6 channels (Homo sapiens, UniProt Q9H1D0)", "T1 construct": "expressed in transfected cells; host or cells: HEK293", "T1 sequence (Q9H1D0 1-765)": "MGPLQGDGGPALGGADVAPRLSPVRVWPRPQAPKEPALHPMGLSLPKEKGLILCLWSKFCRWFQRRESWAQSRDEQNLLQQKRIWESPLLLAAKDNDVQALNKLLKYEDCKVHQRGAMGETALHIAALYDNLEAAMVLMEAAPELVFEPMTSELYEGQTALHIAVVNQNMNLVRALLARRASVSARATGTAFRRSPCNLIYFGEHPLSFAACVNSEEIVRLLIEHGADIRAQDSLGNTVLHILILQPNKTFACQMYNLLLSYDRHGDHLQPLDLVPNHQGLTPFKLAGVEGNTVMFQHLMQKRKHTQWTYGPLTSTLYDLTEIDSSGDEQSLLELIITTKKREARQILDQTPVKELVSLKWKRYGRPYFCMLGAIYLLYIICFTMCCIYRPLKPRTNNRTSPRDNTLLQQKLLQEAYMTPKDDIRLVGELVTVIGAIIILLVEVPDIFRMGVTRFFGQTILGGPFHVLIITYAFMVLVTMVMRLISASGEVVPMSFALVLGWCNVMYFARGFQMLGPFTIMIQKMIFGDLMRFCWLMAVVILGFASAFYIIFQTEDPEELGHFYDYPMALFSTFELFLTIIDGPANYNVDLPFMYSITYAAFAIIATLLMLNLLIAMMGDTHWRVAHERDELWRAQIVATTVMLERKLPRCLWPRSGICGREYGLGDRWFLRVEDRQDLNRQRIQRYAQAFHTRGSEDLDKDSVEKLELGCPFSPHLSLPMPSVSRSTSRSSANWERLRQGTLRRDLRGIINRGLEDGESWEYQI", "assay": "TRP Family FLIPR Assay, TRPV6", "type": "cell-based", "conditions": "antagonist mode; activated with 0.9 mM calcium ion; HEK293 cells; 0.003-10 μM; read-out: IC50 hTRPV6", "procedure": "The compound of Example 5 was tested for selectivity against a panel of Human TRP family ion channels in a TRP Family FLIPR Assay as described below. • 1. TRPC3 channels (human TRPC3 variant 1 gene, expressed in HEK293 cells). • 2. TRPC4 channels (human TRPC4 gene, expressed in HEK293 cells). • 3. TRPC5 channels (human TRPC5 gene, expressed in HEK293 cells). • 4. TRPC6 channels (human TRPC6 gene, expressed in HEK293 cells). • 5. TRPM2 channels (human TRPM2 gene, transiently expressed in HEK293 cells). • 6. TRPM3 channels (human TRPM3 gene, transiently expressed in HEK293 cells). • 7. TRPM4 channels (human TRPM4 gene, expressed in CHO cells). • 8. […]\nData acquisition was performed via the FLIPR Control software supplied with the FLIPR System (MDS-AT) and data was analyzed using Microsoft Excel (Microsoft Corp., Redmond, WA) or GraphPad Prism. […]\n[formula] where Base is the response at low concentrations of test article, Max is the maximum response at high concentrations, xhalf the EC50, or IC50, the concentration of test article producing either half-maximal activation or inhibition, and rate is the Hill coefficient. […] No assumptions about the fit parameters was made; the fit parameters were determined by the algorithm.\nThe effect of each test article was evaluated at eight (8) concentrations: 0.003, 0.01, 0.03, 0.1, 0.3, 1, 3 and 10 μM, n≤4 wells/concentration). […]"}, "[2]": {"test_system": "Hepatocytes", "assay": "Hepatocytes predicted clearance, cyno"}, "[3]": {"test_system": "Hepatocytes", "assay": "Hepatocytes predicted clearance, mouse"}, "[4]": {"test_system": "Hepatocytes", "assay": "Hepatocytes predicted clearance, human"}},
  "data": [
    {"smiles": "CC(C)(O)c1cnc(N2C[C@@]3(CC[C@@H](F)[C@](C)(Cn4cnc5ccc(C#N)cc54)C3)OC2=O)cn1", "note": "(single isomer, unassigned) [Example 5]", "values": [
      {"measurement": "IC50", "setting": "[1]", "result": "> 10", "unit": "µM"},
      {"measurement": "Hepatocytes predicted clearance in cyno", "setting": "[2]", "result": 1, "unit": "mL/min/kg"},
      {"measurement": "Hepatocytes predicted clearance in mouse", "setting": "[3]", "result": 12.8, "unit": "mL/min/kg"},
      {"measurement": "Hepatocytes predicted clearance in human", "setting": "[4]", "result": "< 0.17", "unit": "mL/min/kg"}
    ]}
  ]
}
